Read-outs that look alike come from different tables or passages of the source.
Assays:
[1] = target: T1, c-Met (cytoplasmic domain) (Homo sapiens, UniProt P08581); experiment: c-Met Kinase Assay (same methods as for ALK, with modifications); assay type: biochemical
T1 construct: 10 ng/mL c-Met (cytoplasmic domain, Invitrogen Corporation #PV3143); purchased Invitrogen Corporation PV3143
Summary of the method: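 Europium-labeled PT66 antibody (Eu-N1) detects substrate phosphorylation on wells coated with phospholipase C-γ at 10 μg/mL. The kinase, the cytoplasmic domain of c-Met at 10 ng/mL, starts the reaction, which proceeds 15 minutes at 37° C.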

[2] = target: T2, baculovirus-expressed ALK (Homo sapiens, UniProt Q9UM73); experiment: ALK Kinase Assay (ELISA-type, time-resolved fluorescence); assay type: biochemical
T2 construct: host or cells: baculovirus expression system
T2 sequence (Q9UM73 19-1620): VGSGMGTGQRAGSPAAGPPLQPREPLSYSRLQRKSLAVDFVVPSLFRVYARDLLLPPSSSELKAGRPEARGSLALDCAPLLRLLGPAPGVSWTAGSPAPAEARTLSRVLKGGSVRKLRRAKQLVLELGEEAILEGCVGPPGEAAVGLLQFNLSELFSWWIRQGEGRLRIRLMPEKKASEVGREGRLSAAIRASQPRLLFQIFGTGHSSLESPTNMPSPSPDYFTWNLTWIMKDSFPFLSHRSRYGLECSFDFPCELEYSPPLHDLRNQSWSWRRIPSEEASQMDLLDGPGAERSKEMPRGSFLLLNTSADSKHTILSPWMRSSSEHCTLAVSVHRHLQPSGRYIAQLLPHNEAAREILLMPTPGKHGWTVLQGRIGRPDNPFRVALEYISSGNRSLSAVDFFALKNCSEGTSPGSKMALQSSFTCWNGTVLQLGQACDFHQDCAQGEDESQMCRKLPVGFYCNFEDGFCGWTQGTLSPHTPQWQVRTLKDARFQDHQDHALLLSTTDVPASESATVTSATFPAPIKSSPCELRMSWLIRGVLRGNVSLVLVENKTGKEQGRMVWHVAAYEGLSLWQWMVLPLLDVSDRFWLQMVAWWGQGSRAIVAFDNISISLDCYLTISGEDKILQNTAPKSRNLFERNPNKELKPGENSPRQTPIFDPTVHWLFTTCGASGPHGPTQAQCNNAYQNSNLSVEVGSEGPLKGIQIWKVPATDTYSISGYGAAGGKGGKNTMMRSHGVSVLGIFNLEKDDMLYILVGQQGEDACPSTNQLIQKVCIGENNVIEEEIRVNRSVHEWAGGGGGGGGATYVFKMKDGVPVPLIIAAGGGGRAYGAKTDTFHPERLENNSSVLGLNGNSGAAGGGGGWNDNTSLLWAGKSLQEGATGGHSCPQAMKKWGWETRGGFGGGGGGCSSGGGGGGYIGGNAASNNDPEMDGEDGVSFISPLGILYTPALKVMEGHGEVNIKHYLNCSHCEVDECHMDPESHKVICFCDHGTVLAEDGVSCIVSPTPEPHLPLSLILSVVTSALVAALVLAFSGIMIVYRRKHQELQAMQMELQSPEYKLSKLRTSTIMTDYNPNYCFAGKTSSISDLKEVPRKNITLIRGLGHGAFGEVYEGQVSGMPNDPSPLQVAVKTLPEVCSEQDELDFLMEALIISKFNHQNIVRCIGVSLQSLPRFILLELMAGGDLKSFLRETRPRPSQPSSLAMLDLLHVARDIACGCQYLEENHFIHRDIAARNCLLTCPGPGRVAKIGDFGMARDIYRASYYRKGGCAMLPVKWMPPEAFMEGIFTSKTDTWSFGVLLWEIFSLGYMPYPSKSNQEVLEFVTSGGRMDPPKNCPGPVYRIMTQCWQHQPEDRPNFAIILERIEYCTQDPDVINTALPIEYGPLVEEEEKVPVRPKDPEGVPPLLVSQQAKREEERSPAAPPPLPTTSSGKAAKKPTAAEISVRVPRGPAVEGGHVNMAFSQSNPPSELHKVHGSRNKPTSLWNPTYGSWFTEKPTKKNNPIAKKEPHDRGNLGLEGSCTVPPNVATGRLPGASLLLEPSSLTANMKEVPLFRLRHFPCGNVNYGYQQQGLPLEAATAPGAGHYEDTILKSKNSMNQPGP
Summary of the method: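 Plates coated with phospholipase C-γ substrate (10 μg/mL in TBS); reaction started with 30 ng/ml ALK and run 15 min at 37° C. Phosphorylated substrate detected with Eu-N1-labeled PT66 antibody. IC50 from sigmoidal variable-slope fit of percent inhibition vs log concentration.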

[3] = 1 μM ATP (Km level), read-out: cMet Activity (c-Met Kinase Inhibition, IC50)
[4] = 1 μM ATP (Km level), read-out: ALK Activity (ALK Kinase Inhibition, IC50)
[5] = c-Met kinase inhibition, 1 μM ATP (Km level), read-out: cMet Activity
[6] = ALK kinase inhibition, 1 μM ATP (Km level), read-out: ALK Activity
[7] = 1 μM ATP (Km level), 10 ng/mL c-Met, read-out: cMet Activity (c-Met kinase inhibition, IC50 class)
[8] = 1 μM ATP (Km level), 30 ng/ml ALK, 37° C., 15 minutes, read-out: ALK Activity (ALK kinase inhibition, IC50 class)
[9] = c-Met kinase inhibition, 1 μM ATP, read-out: cMet Activity
[10] = ALK kinase inhibition, 1 μM ATP, read-out: ALK Activity

T1 sequence (P08581 956-1390 limits assumed): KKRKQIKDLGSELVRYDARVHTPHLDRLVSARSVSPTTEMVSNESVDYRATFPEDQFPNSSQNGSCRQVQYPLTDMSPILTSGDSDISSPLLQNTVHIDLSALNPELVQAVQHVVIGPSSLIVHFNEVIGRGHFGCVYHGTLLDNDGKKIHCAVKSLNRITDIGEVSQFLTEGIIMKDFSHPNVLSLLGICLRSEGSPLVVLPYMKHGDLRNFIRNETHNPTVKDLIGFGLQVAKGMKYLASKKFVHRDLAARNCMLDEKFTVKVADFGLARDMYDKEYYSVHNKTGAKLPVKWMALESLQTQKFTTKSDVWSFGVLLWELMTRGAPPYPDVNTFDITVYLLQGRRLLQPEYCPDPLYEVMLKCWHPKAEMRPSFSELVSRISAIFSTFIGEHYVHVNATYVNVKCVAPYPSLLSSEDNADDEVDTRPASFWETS

SMILES	IC50 [1, 5]	IC50 [2, 6]	IC50 [1, 9]	IC50 [2, 10]	further results
COc1ccc(Nc2nc(Nc3cc4c(cc3OC)CCN(CC(=O)N(C)C)CC4)ncc2Cl)c(NS(C)(=O)=O)c1 [Example 821, 2-{7-[5-Chloro-4-(2-methanesulfonylamino-4-methoxy-phenylamino)-pyrimidin-2-ylamino]-8-methoxy-1,2,4,5-tetrahydro-benzo[d]azepin-3-yl}-N,N-dimethyl-acetamide]	–	–	–	–	IC50 [1, 3]: > 10000 nM; IC50 [2, 4]: < 100 nM
CNC(=O)c1ccccc1Nc1nc(Nc2cc3c(cc2OC)CC(=O)NCC3)ncc1Cl [Example 264, 2-[5-Chloro-2-(8-methoxy-2-oxo-2,3,4,5-tetrahydro-1H-benzo[d]azepin-7-ylamino)-pyrimidin-4-ylamino]-N-methyl-benzamide]	1000 to 10000 nM	< 100 nM	–	–	–
COc1ccc(Nc2nc(Nc3ccc4c(c3)CCC(N3CCOCC3)CC4)ncc2Cl)c2c1CN(C)C2=O (stereo not shown) [Example 939, 7-[5-Chloro-2-(7-morpholin-4-yl-6,7,8,9-tetrahydro-5H-benzocyclohepten-2-ylamino)-pyrimidin-4-ylamino]-4-methoxy-2-methyl-2,3-dihydro-isoindol-1-one]	–	–	–	–	IC50 [1, 3]: 1000 to 10000 nM; IC50 [2, 4]: < 100 nM
COc1ccc2c(c1Nc1ncc(Cl)c(Nc3ccccc3-n3cccn3)n1)CCC(NCC(F)F)CC2 (stereo not shown) [Example 1076, 5-Chloro-N*2*-[7-(2,2-difluoro-ethylamino)-2-methoxy-6,7,8,9-tetrahydro-5H-benzocyclohepten-1-yl]-N*4*-(2-pyrazol-1-yl-phenyl)-pyrimidine-2,4-diamine]	–	–	–	–	IC50 [1, 7]: > 10000 nM; IC50 [2, 8]: 100 to 1000 nM
CCN1CCN(CC)c2cc(Nc3ncc(Cl)c(N[C@@H]4CCCC[C@H]4NS(C)(=O)=O)n3)c(Cl)cc2C1 [Example 427, N-{(1R,2R)-2-[5-Chloro-2-(7-chloro-1,4-diethyl-2,3,4,5-tetrahydro-1H-benzo[e][1,4]diazepin-8-ylamino)-pyrimidin-4-ylamino]-cyclohexyl}-methanesulfonamide]	> 10000 nM	< 100 nM	–	–	–
COc1cc(N2CCN(C)CC2)ccc1Nc1nc(Nc2cccc3c2OCCCC3(C)C)ncc1Cl [Example 872, 5-Chloro-N*2*-(5,5-dimethyl-2,3,4,5-tetrahydro-benzo[b]oxepin-9-yl)-N*4*-[2-methoxy-4-(4-methyl-piperazin-1-yl)-phenyl]-pyrimidine-2,4-diamine]	–	–	–	–	IC50 [1, 3]: > 10000 nM; IC50 [2, 4]: < 100 nM
CCN1CC2CCC(C1)c1cc(Nc3ncc(Cl)c(Nc4ccccc4C(=O)NC)n3)ccc12 (stereo not shown) [Example 271, 2-[5-Chloro-2-(10-ethyl-10-aza-tricyclo[6.3.2.0*2,7*]trideca-2,4,6-trien-4-ylamino)-pyrimidin-4-ylamino]-N-methyl-benzamide]	< 100 nM	< 100 nM	–	–	–
CCN1CC(=O)N(CC)c2cc(Nc3ncc(Cl)c(N[C@H]4[C@@H](C(N)=O)[C@@H]5C=C[C@H]4C5)n3)c(OC)cc2C1 [Example 739, (1S,2,3R,4R)-3-[5-Chloro-2-(1,4-diethyl-7-methoxy-2-oxo-2,3,4,5-tetrahydro-1H-benzo[e][1,4]diazepin-8-ylamino)-pyrimidin-4-ylamino]-bicyclo(2.2.1)hept-5-ene-2-carboxylic acid amide]	–	–	–	–	IC50 [1, 3]: > 10000 nM; IC50 [2, 4]: 100 to 1000 nM
CCNC(=O)c1cccc(F)c1Nc1nc(Nc2cc3c(cc2OC)CCN(CC(C)(F)F)CC3)ncc1Cl [Example 789, 2-{5-Chloro-2-[3-(2,2-difluoro-propyl)-8-methoxy-2,3,4,5-tetrahydro-1H-benzo[d]azepin-7-ylamino]-pyrimidin-4-ylamino}-N-ethyl-3-fluoro-benzamide]	–	–	–	–	IC50 [1, 3]: 1000 to 10000 nM; IC50 [2, 4]: < 100 nM
C#CCN1CCc2ccc(Nc3ncc(Cl)c(N[C@@H]4CCCC[C@H]4NS(C)(=O)=O)n3)cc2CC1 [Example 325, N-{(1R,2R)-2-[5-Chloro-2-(3-prop-2-ynyl-2,3,4,5-tetrahydro-1H-benzo[d]azepin-7-ylamino)-pyrimidin-4-ylamino]-cyclohexyl}-methanesulfonamide]	100 to 1000 nM	< 100 nM	–	–	–
CNC(=O)c1ccccc1Nc1nc(Nc2ccc3c(c2)CCN(CC(F)(F)F)CC3)ncc1Cl [Example 41, 2-{5-Chloro-2-[3-(2,2,2-trifluoro-ethyl)-2,3,4,5-tetrahydro-1H-benzo[d]azepin-7-ylamino]-pyrimidin-4-ylamino}-N-methyl-benzamide]	< 100 nM	< 100 nM	–	–	–
COc1cc(N2CCOCC2)ccc1Nc1nc(Nc2ccc(OC)c3c2N(C)C(=O)CCC3)ncc1Cl [Example 124, 9-[5-Chloro-4-(2-methoxy-4-morpholin-4-yl-phenylamino)-pyrimidin-2-ylamino]-6-methoxy-1-methyl-1,3,4,5-tetrahydro-benzo[b]azepin-2-one]	> 10000 nM	< 100 nM	–	–	–
CCN1C(=O)[C@@H](NC(=O)C2CC2)CCc2c1ccc(Nc1ncc(Cl)c(N[C@H]3[C@@H](C(N)=O)[C@@H]4C=C[C@H]3C4)n1)c2OC (single isomer, unassigned) [Example 1358]	–	–	–	–	IC50 [1, 7]: > 10000 nM; IC50 [2, 8]: < 100 nM
COc1ccc2c(c1Nc1ncc(Cl)c(Nc3ccccc3S(=O)(=O)N(C)C)n1)CCC(NCC(F)F)CC2 (stereo not shown) [Example 1077, 2-{5-Chloro-2-[7-(2,2-difluoro-ethylamino)-2-methoxy-6,7,8,9-tetrahydro-5H-benzocyclohepten-1-ylamino]-pyrimidin-4-ylamino}-N,N-dimethyl-benzenesulfonamide]	–	–	–	–	IC50 [1, 7]: > 10000 nM; IC50 [2, 8]: 100 to 1000 nM
COCCN1CCc2ccc(Nc3ncc(Cl)c(Nc4cc(Cl)ccc4OC)n3)cc2CC1 [Example 146, 5-Chloro-N*4*-(5-chloro-2-methoxy-phenyl)-N*2*-[3-(2-methoxy-ethyl)-2,3,4,5-tetrahydro-1H-benzo[d]azepin-7-yl]-pyrimidine-2,4-diamine]	100 to 1000 nM	< 100 nM	–	–	–
CCN1C(=O)CCCc2c1ccc(Nc1ncc(Cl)c(N[C@@H]3[C@H](C(N)=O)[C@H]4C=C[C@@H]3C4)n1)c2OC [Example 132, (1R,2R,3S,4S)-3-[5-Chloro-2-(1-ethyl-6-methoxy-2-oxo-2,3,4,5-tetrahydro-1H-benzo[b]azepin-7-ylamino)-pyrimidin-4-ylamino]-bicyclo[2.2.1]hept-5-ene-2-carboxylic acid amide]	> 10000 nM	1000 to 10000 nM	–	–	–

Second part, led by results:

IC50 [1, 5]	IC50 [2, 6]	IC50 [1, 9]	IC50 [2, 10]	SMILES	further results
–	–	1000 to 10000 nM	< 100 nM	CCNC(=O)c1ccccc1Nc1nc(Nc2cc3c(cc2OC)CN(Cc2ccccc2)CC(=O)N3)ncc1Cl [Example 1653, 2-[2-(4-Benzyl-7-methoxy-2-oxo-2,3,4,5-tetrahydro-1H-benzo[e][1,4]diazepin-8-ylamino)-5-chloro-pyrimidin-4-ylamino]-N-ethyl-benzamide]	–
–	–	> 10000 nM	1000 to 10000 nM	COc1ccc2c(c1Nc1ncc(Cl)c(N[C@@H]3CCCC[C@H]3NS(C)(=O)=O)n1)CN(Cc1ccccc1)CC(=O)N2 [Example 1654, N-{(1R,2R)-2-[2-(4-Benzyl-7-methoxy-2-oxo-2,3,4,5-tetrahydro-1H-benzo[e][1,4]diazepin-6-ylamino)-5-chloro-pyrimidin-4-ylamino]-cyclohexyl}-methanesulfonamide]	–
–	–	> 10000 nM	< 100 nM	COc1cc2c(cc1Nc1ncc(Cl)c(N[C@H]3[C@@H](C(N)=O)[C@@H]4C=C[C@H]3C4)n1)CCN(CC(C)O)CC2 (stereo partly drawn) [Example 1548, (1S,2S,3R,4R)-3-{5-Chloro-2-[3-(2-hydroxy-propyl)-8-methoxy-2,3,4,5-tetrahydro-1H-3-benzazepin-7-ylamino]-pyrimidin-4-ylamino}-bicyclo[2.2.1]hept-5-ene-2-carboxylic acid amide]	–
–	–	1000 to 10000 nM	1000 to 10000 nM	CNC(=O)c1cccc(F)c1Nc1nc(Nc2ccc3c(c2)CCC(=O)NC3(C)C)ncc1Cl [Example 1826, 2-(5-Chloro-2-(1,1-dimethyl-3-oxo-2,3,4,5-tetrahydro-1H-benzo[c]azepin-7-ylamino)pyrimidin-4-ylamino)-3-fluoro-N-methylbenzamide]	–
–	–	> 10000 nM	< 100 nM	COc1cc(N2CCOCC2)ccc1Nc1nc(Nc2ccc3c(c2)N(C(C)C)C(=O)CCC3(C)C)ncc1Cl [Example 1591, 8-[5-Chloro-4-(2-methoxy-4-morpholin-4-yl-phenylamino)-pyrimidin-2-ylamino]-1-isopropyl-5,5-dimethyl-1,3,4,5-tetrahydro-benzo[b]azepin-2-one]	–
–	–	1000 to 10000 nM	< 100 nM	COc1cc2c(cc1Nc1ncc(Cl)c(Nc3ccccc3S(=O)(=O)N(C)C)n1)CCN(CC(=O)N1CCN(C)CC1)CC2 [Example 1538, 2-(5-Chloro-2-{8-methoxy-3-[2-(4-methyl-piperazin-1-yl)-2-oxo-ethyl]-2,3,4,5-tetrahydro-1H-3-benzazepin-7-ylamino}-pyrimidin-4-ylamino)-N,N-dimethyl-benzenesulfonamide]	–
–	–	< 100 nM	< 100 nM	CNC(=O)c1ccccc1Nc1nc(Nc2ccc3c(c2)CNC(=O)CC3)ncc1Cl [Example 1794, 2-[5-Chloro-2-(3-oxo-2,3,4,5-tetrahydro-1H-benzo[c]azepin-8-ylamino)-pyrimidin-4-ylamino]-N-methylbenzamide]	–
